Experimental data published in publication PMC11984924, “Dipeptidic Phosphonates: Potent Inhibitors of Pseudomonas aeruginosa Elastase B Showing Efficacy in a Murine Keratitis Model” (Advanced Science, 2025).

What was measured:
[1] = Metabolic stability in human liver S9 fraction; format: in vitro ADME; conditions: human liver S9, 1 µM
Method: page 57: 3. Biological evaluation 3.1 In vitro inhibition assays […] MMPs, TACE). […] inhibitor screening kits were purchased from Sigma-Aldrich (Saint Louis, MO). MMPs along with the SensoLyte 520 Generic MMP Activity Kit Fluorimetric were purchased from AnaSpec (Fremont, CA, USA). The assays were performed according to the guidelines of the respective manufacturer. Fluorescence signals were measured using a CLARIOstar plate reader (BMG Labtech, Ortenberg, Germany). 3.2 Kinetic solubility […] well were transferred into another 96-well plate and mixed with 148.5 µL of PBS. Plates were shaken for 5 min at 600 rpm at room temperature (r.t.), and the absorbance at 620 nm was measured. Absorbance values were normalized by blank subtraction and plotted using GraphPad Prism 8.4.2 (GraphPad Software, San Diego, CA, USA). Solubility (S) was […] 3.3 Lipophilicity determination LogD7.4 was analyzed using an HPLC−based method. The UV retention time of reference […] Linear […] Analysis was performed using a Vanquish Flex HPLC system with variable wavelength detector (Thermo Fisher, Dreieich, Germany) with the following conditions: EC150/2 NUCLEODUR C18 Pyramid column, 5 μM (Macherey Nagel, Düren, Germany); eluent A: 50 mM NH4OAc pH 7.4, eluent B: acetonitrile, and flow: 0.6 mL/min. […] 3.4 Metabolic stability in liver S9 fractions For the evaluation of combined phase I and phase II metabolic stability, the compound (1 μM) was incubated with 1 mg/mL pooled mouse liver S9 fraction (C57BL/6, Xenotech, Kansas Cit y, USA) or human liver S9 fraction (Corning, USA), 2 mM NADPH, 1 mM UDPGA, 10 mM MgCl2, 5 mM GSH and 0.1 mM PAPS at 37 °C for 120 min. The metabolic stability of testosterone, verapamil and ketoconazole were determined in parallel to confirm the enzymatic activity of S56 page 58: mouse S9 fractions, for human S9 testosterone, diclofenac and propranolol were used. The incubation was stopped after defined time points by precipitation of aliquots of S9 enzymes […] Samples were stored on ice until the end of the incubation and precipitated protein was removed by centrifugation (15 min, 4 °C, 4,000 g). Concentration of the remaining test compound at the different time points was analyzed by HPLC-MS/MS (TSQ Quantum Access MAX, Thermo Fisher, Dreieich, Germany) and used to determine half -life (t1/2) and intrinsic clearance (Clint). Species profiling was conducted as above using 0.5 mg/mL pooled mouse, rat or minipig liver microsomes (Xenotech, Kansas City, USA) with 2 mM NADPH and 10 mM MgCl2 and testosterone, verapamil and ketoconazole as reference compounds. 3.5 Plasma stability To determine stability in plasma, the compound (1 µM) was incubated with pooled CD -1 mouse/human/Wistar rat or Göttingen minipig plasma (Neo Biotech, Nanterre, France). Samples were taken by mixing aliquots with 4 volumes of acetonitrile containing internal standard (125 nM diphenhydramine). The plasma stability of procain, propantheline and diltiazem were determined in parallel to confirm the enzymatic activity. Samples were stored on ice until the end of the incubation and precipitated protein was removed by centrifugation (15 min, 4 °C, 4,000 g, two centrifugation steps). Concentration of the remaining test compound at the different time points was analyzed by HPLC-MS/MS (TSQ Quantum Access MAX, Thermo Fisher, Dreieich, Germany) and used to determine half-life (t1/2). Table S2: Additional in vitro ADMET data for selected dipeptides. n.d.: not determined. […] Compound Solubility PBS pH 7.4 [µM] Mouse Human Mouse Human […] S57

Plasma stability, mouse = format: in vitro ADME; conditions: CD-1, read-out: Plasma t1/2 Mouse
Method: To determine stability in plasma, the compound (1 µM) was incubated with pooled CD -1 […]
mouse/human/Wistar rat or Göttingen minipig plasma (Neo Biotech, Nanterre, France).
Samples were taken by mixing aliquots with 4 volumes of acetonitrile containing internal […]
standard (125 nM diphenhydramine). The plasma stability of procain, propantheline and diltiazem were determined in parallel to confirm the enzymatic activity. Samples were stored […]
on ice until the end of the incubation and precipitated protein was removed by centrifugation […]
(15 min, 4 °C, 4,000 g, two centrifugation steps). Concentration of the remaining test compound at the different time points was analyzed by HPLC-MS/MS (TSQ Quantum Access MAX, […]
Thermo Fisher, Dreieich, Germany) and used to determine half-life (t1/2).
Table S2: Additional in vitro ADMET data for selected dipeptides. n.d.: not determined.
Kinetic Liver S9 Clint [µL/mg/min] Plasma t1/2 [min] LogD7.4 […]
pH 7.4 [µM] Mouse Human Mouse Human

MMP-1 = molecular target: T1, MMP-1 (Homo sapiens, UniProt P03956); assay: MMP-1 inhibition (off-target); format: biochemical; conditions: read-out: MMP-1 % inhibition at 100 µM
T1 construct: purchased AnaSpec (Fremont, CA, USA)
T1 sequence (P03956 100-469): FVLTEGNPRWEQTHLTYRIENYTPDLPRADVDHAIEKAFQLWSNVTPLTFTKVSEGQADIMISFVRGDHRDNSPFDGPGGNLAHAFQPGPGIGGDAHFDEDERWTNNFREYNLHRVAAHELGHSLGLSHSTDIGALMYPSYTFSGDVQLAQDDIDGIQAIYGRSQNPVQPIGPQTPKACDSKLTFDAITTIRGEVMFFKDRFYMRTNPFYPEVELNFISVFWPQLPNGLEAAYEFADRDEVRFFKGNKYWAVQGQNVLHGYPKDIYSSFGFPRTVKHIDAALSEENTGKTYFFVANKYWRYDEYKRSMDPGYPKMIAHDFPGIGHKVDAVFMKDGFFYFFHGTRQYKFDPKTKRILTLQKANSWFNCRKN
Method: 3.1 In vitro inhibition assays
LasB was expressed and purified as described previously.[3] In vitro inhibition assays (LasB, MMPs, TACE). All in vitro inhibition assays were performed as described previously.[10] TACE inhibitor screening kits were purchased from Sigma-Aldrich (Saint Louis, MO). MMPs along with the SensoLyte 520 Generic MMP Activity Kit Fluorimetric were purchased from AnaSpec (Fremont, CA, USA). The assays were performed according to the guidelines of the respective manufacturer. Fluorescence signals were measured using a CLARIOstar plate reader (BMG Labtech, Ortenberg, Germany). […]
3.8 Test against zinc metalloproteases MMP1–3 and TACE (ADAM17), and testing of
We selected a panel of human off -targets, including three human matrix metalloproteases (MMP-1, -2 and -3) and TACE (ADAM-17). These assays were performed as described previously.[3] The TACE inhibitor screening kit was purchased from Sigma -Aldrich (Saint Louis, MO). MMPs along with the SensoLyte 520 Generic MMP Activity Kit Fluorimetric were purchased from AnaSpec (Fremont, CA, USA). The assays were performed according to the guidelines of the respective manufacturer. Fluorescence signals were measured using a CLARIOstar plate reader (BMG Labtech, Ortenberg, Germany). […]
Table S6: Percent (%) inhibition of three MMPs (1 –3) and TACE (ADAM17) in presence of selected LasB inhibitors at 100 µM. Results are means and SD of at least two independent experiments. […]
Compound [% inhibition at [% inhibition at [% inhibition at [% inhibition at 100

| Compound | microsomal CLint at 1 µM [1] | half-life at 1 µM (Plasma stability, mouse) | inhibition at 100 µM (MMP-1) |
| --- | --- | --- | --- |
| CC(C)CC(C(=O)N[C@H](C(=O)Nc1ccc(Cl)c(Cl)c1)C1CCC1)P(=O)(O)O (stereo partly drawn) [compound 13] | < 5.8 µL/min/mg | > 2.5 h | < 10% |
| CC(C)CC(C(=O)N[C@H](C(=O)Nc1ccc(Cl)c(Cl)c1)C1CCCCC1)P(=O)(O)O (stereo partly drawn) [compound 14] | < 5.8 µL/min/mg | > 2.5 h | < 10% |
| CC(C)CC(C(=O)N[C@H](C(=O)Nc1ccc(Cl)c(Cl)c1)C(C)C)P(=O)(O)O (stereo partly drawn) [compound 9] | < 5.8 µL/min/mg | > 2.5 h | 13 ± 1% |
| CC(C)C[C@H](C(=O)N[C@H](C(=O)Nc1ccc(-n2ccnc2)cc1)C(C)C)P(=O)(O)O [(R)‐36] | < 5.8 µL/min/mg | > 2.5 h | < 10% |
| CC(=O)c1ccc(NC(=O)[C@@H](NC(=O)[C@@H](CC(C)C)P(=O)(O)O)C(C)C)cc1 [(R)‐30] | < 5.8 µL/min/mg | > 2.5 h | < 10% |
| CC(=O)c1ccc(NC(=O)[C@@H](NC(=O)C(CC(C)C)P(=O)(O)O)C(C)C)cc1 (stereo partly drawn) [compound 30] | < 5.8 µL/min/mg | > 2.5 h | < 10% |
